Key:
human TLR7 = human TLR7 (Homo sapiens (Human), UniProt Q9NYK1); test: TLR7 inhibition reporter assay (HEK-Blue SEAP reporter, gardiquimod stimulation); type: cell-based; settings: HEK-Blue cells overexpressing human TLR7, gardiquimod 7.5 μM
Protocol: (§1) HEK-Blue™-cells (Invivogen) overexpressing human TLR7, TLR8 or TLR9 receptors were used for screening inhibitors of these receptors using an inducible SEAP (secreted embryonic alkaline phosphatase) reporter gene under the control of the IFN-β minimal promoter fused to five NF-κB and AP-1-binding sites. Briefly, cells are seeded into Greiner 384 well plates (15000 cells per well for TLR7, 20,000 for TLR8 and 25,000 for TLR9) and then treated with test compounds in DMSO to yield a final dose response concentration range of 0.05 nM-50 μM. After a 30 minute compound pre-treatment at room temperature, the cells are then stimulated with a TLR7 ligand (gardiquimod at a final concentration of 7.5 μM), TLR8 ligand (R848 at a final concentration of 15.9 μM) or TLR9 ligand (ODN2006 at a final concentration of 5 nM) to activate NF-κB and AP-1 which induce the production of SEAP. After a 22 hour incubation at 37° C., 5% CO2, SEAP levels are determined with the addition of HEK-Blue™ Detection reagent (Invivogen), a cell culture medium that allows for detection of SEAP, according to manufacturer's specifications.

human TLR8 = human TLR8 (Homo sapiens (Human), UniProt Q9NR97); test: TLR8 inhibition reporter assay (HEK-Blue SEAP reporter, R848 stimulation); settings: read-out: TLR8 IC50; HEK-Blue cells overexpressing human TLR8, R848 15.9 μM, SEAP reporter;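 note: SEAP driven by IFN-β minimal promoter with NF-κB and AP-1 sites, 22 h incubation, compounds 0.05 nM–50 µM, inhibition scaled between agonist plus DMSO and reference inhibitor wells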
Chain of human TLR8 (Q9NR97 27-1041): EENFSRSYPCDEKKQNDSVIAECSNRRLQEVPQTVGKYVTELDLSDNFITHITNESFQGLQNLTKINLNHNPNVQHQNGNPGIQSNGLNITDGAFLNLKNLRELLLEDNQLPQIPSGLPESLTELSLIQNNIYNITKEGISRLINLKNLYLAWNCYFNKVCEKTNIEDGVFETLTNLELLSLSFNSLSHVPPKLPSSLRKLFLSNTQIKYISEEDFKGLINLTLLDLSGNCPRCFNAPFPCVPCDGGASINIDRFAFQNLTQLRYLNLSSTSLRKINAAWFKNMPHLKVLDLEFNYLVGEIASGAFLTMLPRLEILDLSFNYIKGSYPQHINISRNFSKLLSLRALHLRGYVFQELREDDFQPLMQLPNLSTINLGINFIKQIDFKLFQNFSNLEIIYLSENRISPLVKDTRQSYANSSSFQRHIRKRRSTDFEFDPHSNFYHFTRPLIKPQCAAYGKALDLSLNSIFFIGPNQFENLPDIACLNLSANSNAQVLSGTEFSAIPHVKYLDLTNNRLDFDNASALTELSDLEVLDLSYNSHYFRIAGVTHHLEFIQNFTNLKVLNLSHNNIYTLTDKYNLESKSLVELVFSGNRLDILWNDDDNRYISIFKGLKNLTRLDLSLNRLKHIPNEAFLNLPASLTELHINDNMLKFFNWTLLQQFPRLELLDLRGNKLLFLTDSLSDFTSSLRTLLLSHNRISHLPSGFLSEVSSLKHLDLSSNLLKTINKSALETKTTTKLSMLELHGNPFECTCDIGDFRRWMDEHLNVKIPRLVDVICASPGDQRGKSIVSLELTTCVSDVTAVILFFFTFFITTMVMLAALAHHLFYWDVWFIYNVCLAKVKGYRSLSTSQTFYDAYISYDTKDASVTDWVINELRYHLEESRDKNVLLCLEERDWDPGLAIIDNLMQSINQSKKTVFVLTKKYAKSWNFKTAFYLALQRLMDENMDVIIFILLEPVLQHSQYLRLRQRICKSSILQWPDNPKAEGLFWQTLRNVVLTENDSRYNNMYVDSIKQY
Protocol: as §1

human TLR9 = human TLR9 (Homo sapiens (Human), UniProt Q9NR96); test: TLR9 inhibition reporter assay (HEK-Blue SEAP reporter, ODN2006 stimulation); settings: read-out: TLR9 IC50; HEK-Blue cells overexpressing human TLR9, ODN2006 5 nM, SEAP reporter;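 note: SEAP reporter under IFN-β minimal promoter with five NF-κB and AP-1 sites, 22 h incubation, compounds 0.05 nM–50 µM, inhibition relative to agonist plus DMSO versus known inhibitor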
Chain of human TLR9 (Q9NR96 26-1032): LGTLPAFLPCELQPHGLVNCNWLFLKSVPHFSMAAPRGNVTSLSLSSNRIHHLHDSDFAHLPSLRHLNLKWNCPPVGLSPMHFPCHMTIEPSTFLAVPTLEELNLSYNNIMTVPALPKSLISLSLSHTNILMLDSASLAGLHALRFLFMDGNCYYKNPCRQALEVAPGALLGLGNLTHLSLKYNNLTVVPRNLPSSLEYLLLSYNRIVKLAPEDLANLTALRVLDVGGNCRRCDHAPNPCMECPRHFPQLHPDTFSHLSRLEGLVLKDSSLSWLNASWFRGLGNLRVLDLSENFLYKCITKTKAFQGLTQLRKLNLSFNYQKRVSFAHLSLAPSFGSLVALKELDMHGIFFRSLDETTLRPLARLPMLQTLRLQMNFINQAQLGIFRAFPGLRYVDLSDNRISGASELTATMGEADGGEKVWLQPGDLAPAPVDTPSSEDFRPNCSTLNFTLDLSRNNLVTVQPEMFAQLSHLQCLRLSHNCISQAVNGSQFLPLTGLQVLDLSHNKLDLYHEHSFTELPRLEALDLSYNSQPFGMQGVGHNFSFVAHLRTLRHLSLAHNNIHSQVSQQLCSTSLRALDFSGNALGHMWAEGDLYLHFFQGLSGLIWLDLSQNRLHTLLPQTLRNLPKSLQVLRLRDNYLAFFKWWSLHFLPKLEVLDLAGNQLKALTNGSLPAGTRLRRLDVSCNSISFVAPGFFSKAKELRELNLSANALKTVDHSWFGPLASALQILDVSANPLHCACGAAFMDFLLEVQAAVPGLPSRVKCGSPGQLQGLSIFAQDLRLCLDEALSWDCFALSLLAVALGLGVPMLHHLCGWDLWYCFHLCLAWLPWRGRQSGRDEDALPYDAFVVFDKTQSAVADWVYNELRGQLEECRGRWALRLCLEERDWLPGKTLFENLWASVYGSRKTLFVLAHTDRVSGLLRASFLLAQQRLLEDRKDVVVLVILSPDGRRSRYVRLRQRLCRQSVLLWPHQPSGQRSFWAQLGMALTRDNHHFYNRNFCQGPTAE

Chain of human TLR7 (Q9NYK1 27-1049): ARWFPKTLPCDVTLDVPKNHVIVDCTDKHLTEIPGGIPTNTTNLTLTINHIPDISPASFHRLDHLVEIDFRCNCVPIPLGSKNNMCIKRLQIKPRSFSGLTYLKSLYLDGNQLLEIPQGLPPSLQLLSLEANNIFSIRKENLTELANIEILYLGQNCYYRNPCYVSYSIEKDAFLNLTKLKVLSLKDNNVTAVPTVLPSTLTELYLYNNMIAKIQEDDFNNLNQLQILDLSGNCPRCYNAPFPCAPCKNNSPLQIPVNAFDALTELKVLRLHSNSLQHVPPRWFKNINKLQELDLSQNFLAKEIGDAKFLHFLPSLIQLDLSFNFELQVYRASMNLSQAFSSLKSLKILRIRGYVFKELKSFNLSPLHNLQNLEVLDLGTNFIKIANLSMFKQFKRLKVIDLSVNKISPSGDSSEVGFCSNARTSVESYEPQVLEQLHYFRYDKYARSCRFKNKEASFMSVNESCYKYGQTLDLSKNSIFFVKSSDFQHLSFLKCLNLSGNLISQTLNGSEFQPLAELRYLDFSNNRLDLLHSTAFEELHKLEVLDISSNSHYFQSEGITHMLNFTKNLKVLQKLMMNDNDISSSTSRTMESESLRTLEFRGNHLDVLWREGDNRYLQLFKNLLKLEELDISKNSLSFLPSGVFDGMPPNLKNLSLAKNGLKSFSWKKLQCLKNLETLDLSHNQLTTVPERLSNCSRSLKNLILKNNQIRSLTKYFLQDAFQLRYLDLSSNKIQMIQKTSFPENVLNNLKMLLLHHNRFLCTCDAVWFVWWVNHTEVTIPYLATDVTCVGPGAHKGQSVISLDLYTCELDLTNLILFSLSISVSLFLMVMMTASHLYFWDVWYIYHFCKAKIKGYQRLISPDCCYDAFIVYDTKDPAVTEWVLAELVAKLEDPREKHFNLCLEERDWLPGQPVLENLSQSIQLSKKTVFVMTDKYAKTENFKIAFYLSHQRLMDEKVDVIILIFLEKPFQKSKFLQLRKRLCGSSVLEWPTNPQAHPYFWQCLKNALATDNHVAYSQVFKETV

IC50 (human TLR7) [µM]	IC50 (human TLR8) [µM]	IC50 (human TLR9) [µM]	Compound
0.343	0.267	4.02	CNC(=O)CN1CC2CN(C(=O)c3ccc4[nH]c(-c5ccc(OC)c(OC)c5)c(C(C)C)c4c3)CC2C1 (stereo not drawn) [Example 7, 2-(5-(2-(3,4-dimethoxyphenyl)-3-isopropyl-1H-indole-5-carbonyl)hexahydropyrrolo[3,4-c]pyrrol-2(1H)-yl)-N-methylacetamide]
0.076	0.054	5.35	COc1ccc(-c2[nH]c3ccc(C(=O)N4CC5CN(C(=O)CN(C)C)CC5C4)cc3c2C(C)C)cc1OC (stereo not drawn) [Example 9, 1-(5-(2-(3,4-dimethoxyphenyl)-3-isopropyl-1H-indole-5-carbonyl)hexahydropyrrolo[3,4-c]pyrrol-2(1H)-yl)-2-(dimethylamino)ethan-1-one]
0.274	0.175	1.22	CNCCN1CC2CN(C(=O)c3ccc4[nH]c(-c5ccc(OC)c(OC)c5)c(C(C)C)c4c3)CC2C1 (stereo not drawn) [Example 12, (2-(3,4-dimethoxyphenyl)-3-isopropyl-1H-indol-5-yl)(5-(2-(methylamino)ethyl)hexahydropyrrolo[3,4-c]pyrrol-2(1H)-yl)methanone]
0.061	0.061	2.16	COc1ccc(-c2[nH]c3ccc(C(=O)N4CC5CN(C)CC5C4)cc3c2C(C)C)cc1OC (stereo not drawn) [Example 13, (2-(3,4-dimethoxyphenyl)-3-isopropyl-1H-indol-5-yl)(5-methylhexahydropyrrolo[3,4-c]pyrrol-2(1H)-yl)methanone]
0.04	0.026	1.19	COc1ccc(-c2[nH]c3ccc(C(=O)N4CC5CN(C(C)C)CC5C4)cc3c2C(C)C)cc1OC (stereo not drawn) [Example 14, (2-(3,4-dimethoxyphenyl)-3-isopropyl-1H-indol-5-yl)(5-isopropylhexahydropyrrolo[3,4-c]pyrrol-2(1H)-yl)methanone]
0.099	0.054	0.429	COc1ccc(-c2[nH]c3ccc(C(=O)N4CC5CN(C6CCN(C)CC6)CC5C4)cc3c2C(C)C)cc1OC (stereo not drawn) [Example 15, (2-(3,4-dimethoxyphenyl)-3-isopropyl-1H-indol-5-yl)(5-(1-methylpiperidin-4-yl)hexahydropyrrolo[3,4-c]pyrrol-2(1H)-yl)methanone]
0.28	0.194	3.94	CNCC(=O)N1CC2CN(C(=O)c3ccc4[nH]c(-c5ccc(OC)c(OC)c5)c(C(C)C)c4c3)CC2C1 (stereo not drawn) [Example 16, 1-(5-(2-(3,4-dimethoxyphenyl)-3-isopropyl-1H-indole-5-carbonyl)hexahydropyrrolo[3,4-c]pyrrol-2(1H)-yl)-2-(methylamino)ethanone]
0.115	0.0079	2.51	CCc1c(-c2ccc(OC)c(OC)c2)[nH]c2ccc(C(=O)NCCN(C)C)cc12 [Example 17, 2-(3,4-dimethoxyphenyl)-N-[2-(dimethylamino)ethyl]-3-ethyl-1H-indole-5-carboxamide]
1.66	0.26	13.8	CCc1c(-c2ccc(OC)c(OC)c2)[nH]c2ccc(C(=O)NC[C@@H](F)C(C)(C)O)cc12 [Example 18, (R)-2-(3,4-dimethoxyphenyl)-3-ethyl-N-(2-fluoro-3-hydroxy-3-methylbutyl)-1H-indole-5-carboxamide]
2.31	0.858	> 50	CCc1c(-c2ccc(OC)c(OC)c2)[nH]c2ccc(C(=O)NC3CCCCCC3)cc12 [Example 20, N-cycloheptyl-2-(3,4-dimethoxyphenyl)-3-ethyl-1H-indole-5-carboxamide]
0.764	0.132	37.4	CCc1c(-c2ccc(OC)c(OC)c2)[nH]c2ccc(C(=O)Nc3cnn(C4COC4)c3)cc12 [Example 21, 2-(3,4-dimethoxyphenyl)-3-ethyl-N-(1-(oxetan-3-yl)-1H-pyrazol-4-yl)-1H-indole-5-carboxamide]
0.356	0.264	37.6	CCc1c(-c2ccc(OC)c(OC)c2)[nH]c2ccc(C(=O)N(C)Cc3cccnc3)cc12 [Example 22, 2-(3,4-dimethoxyphenyl)-3-ethyl-N-methyl-N-(pyridin-3-ylmethyl)-1H-indole-5-carboxamide]
0.362	0.043	0.885	CCc1c(-c2ccc(OC)c(OC)c2)[nH]c2ccc(C(=O)N(C)Cc3csc(C4CCNCC4)n3)cc12 [Example 23, 2-(3,4-dimethoxyphenyl)-3-ethyl-N-methyl-N-((2-(piperidin-4-yl)thiazol-4-yl)methyl)-1H-indole-5-carboxamide]
1.79	0.581	31.4	CCc1c(-c2ccc(OC)c(OC)c2)[nH]c2ccc(C(=O)N(C)CCc3ccccn3)cc12 [Example 24, 2-(3,4-dimethoxyphenyl)-3-ethyl-N-methyl-N-(2-(pyridin-2-yl)ethyl)-1H-indole-5-carboxamide]
0.186	0.014	3.71	CCc1c(-c2ccc(OC)c(OC)c2)[nH]c2ccc(C(=O)N3CCC(N4CCN(C)CC4)CC3)cc12 [Example 25, (2-(3,4-dimethoxyphenyl)-3-ethyl-1H-indol-5-yl)(4-(4-methylpiperazin-1-yl)piperidin-1-yl)methanone]
1.74	0.782	> 50	CCc1c(-c2ccc(OC)c(OC)c2)[nH]c2ccc(C(=O)N3CCC[C@H]3COC)cc12 [Example 27, (S)-(2-(3,4-dimethoxyphenyl)-3-ethyl-1H-indol-5-yl)(2-(methoxymethyl)pyrrolidin-1-yl)methanone]
1.35	0.22	> 50	CCc1c(-c2ccc(OC)c(OC)c2)[nH]c2ccc(C(=O)N3CCC[C@H]3CO)cc12 [Example 28, (S)-(2-(3,4-dimethoxyphenyl)-3-ethyl-1H-indol-5-yl)(2-(hydroxymethyl)pyrrolidin-1-yl)methanone]
0.188	0.034	6.18	CCc1c(-c2ccc(OC)c(OC)c2)[nH]c2ccc(C(=O)N3CC[C@@H](N(C)C)C3)cc12 [Example 29, (R)-(2-(3,4-dimethoxyphenyl)-3-ethyl-1H-indol-5-yl)(3-(dimethylamino)pyrrolidin-1-yl)methanone]
0.632	0.191	4.16	CCc1c(-c2ccc(OC)c(OC)c2)[nH]c2ccc(C(=O)N3CC[C@H](N(C)C)C3)cc12 [Example 30, (S)-(2-(3,4-dimethoxyphenyl)-3-ethyl-1H-indol-5-yl)(3-(dimethylamino)pyrrolidin-1-yl)methanone]
1.98	0.545	5.1	CCc1c(-c2ccc(OC)c(OC)c2)[nH]c2ccc(C(=O)N3CCCC(C)(C)C3)cc12 [Example 32, (2-(3,4-dimethoxyphenyl)-3-ethyl-1H-indol-5-yl)(3,3-dimethylpiperidin-1-yl)methanone]
1.12	0.897	16.8	CCc1c(-c2ccc(OC)c(OC)c2)[nH]c2ccc(C(=O)N3CCCC(C(=O)N(CC)CC)C3)cc12 (stereo not drawn) [Example 33, 1-(2-(3,4-dimethoxyphenyl)-3-ethyl-1H-indole-5-carbonyl)-N,N-diethylpiperidine-3-carboxamide]
1.18	0.218	> 50	CCc1c(-c2ccc(OC)c(OC)c2)[nH]c2ccc(C(=O)N3CCC(C(N)=O)CC3)cc12 [Example 34, 1-(2-(3,4-dimethoxyphenyl)-3-ethyl-1H-indole-5-carbonyl)piperidine-4-carboxamide]
0.595	0.19	> 50	CCc1c(-c2ccc(OC)c(OC)c2)[nH]c2ccc(C(=O)N3CCCN(C(C)=O)CC3)cc12 [Example 35, 1-(4-(2-(3,4-dimethoxyphenyl)-3-ethyl-1H-indole-5-carbonyl)-1,4-diazepan-1-yl)ethan-1-one]
1.3	0.014	9.94	CCc1c(-c2ccc(OC)c(OC)c2)[nH]c2ccc(C(=O)N3CCN(CCc4ccccc4)CC3)cc12 [Example 37, (2-(3,4-dimethoxyphenyl)-3-ethyl-1H-indol-5-yl)(4-phenethylpiperazine-1-yl)methanone]
0.299	0.0012	5.27	CCc1c(-c2ccc(OC)c(OC)c2)[nH]c2ccc(C(=O)N3CCN(C(C)C)CC3)cc12 [Example 38, (2-(3,4-dimethoxyphenyl)-3-ethyl-1H-indol-5-yl)(4-isopropylpiperazin-1-yl)methanone]
0.367	0.0022	4.41	CCc1c(-c2ccc(OC)c(OC)c2)[nH]c2ccc(C(=O)N3CCN(CC)CC3)cc12 [Example 39, (2-(3,4-dimethoxyphenyl)-3-ethyl-1H-indol-5-yl)(4-ethylpiperazin-1-yl)methanone]
0.545	0.0057	8.7	CCc1c(-c2ccc(OC)c(OC)c2)[nH]c2ccc(C(=O)N3CCN(CCO)CC3)cc12 [Example 40, (2-(3,4-dimethoxyphenyl)-3-ethyl-1H-indol-5-yl)(4-(2-hydroxyethyl)piperazin-1-yl)methanone]
1.14	0.012	26.7	CCc1c(-c2ccc(OC)c(OC)c2)[nH]c2ccc(C(=O)N3CCN(CCOC)CC3)cc12 [Example 41, (2-(3,4-dimethoxyphenyl)-3-ethyl-1H-indol-5-yl)(4-(2-methoxyethyl)piperazin-1-yl)methanone]
0.751	0.015	9.67	CCc1c(-c2ccc(OC)c(OC)c2)[nH]c2ccc(C(=O)N3CCN(CCN4CCOCC4)CC3)cc12 [Example 42, (2-(3,4-dimethoxyphenyl)-3-ethyl-1H-indol-5-yl)(4-(2-morpholinoethyl)piperazin-1-yl)methanone]
